From ChEMBL document CHEMBL5143546, “Synthesis and biological evaluation of quinolone derivatives as transthyretin amyloidogenesis inhibitors and fluorescence sensors” (Bioorg Med Chem, 2022)

Assays:
Transthyretin [1] = molecular target: T1, Transthyretin (Homo sapiens, UniProt P02766); experiment: Inhibition of wild-type Transthyretin (unknown origin) expressed in Escherichia coli expression system assessed as acid mediated fibril formation at 7.2 uM measured after 72 hrs by UV-vis spectrophotometry; design: scale not given: the % may be the effect or the level left
Transthyretin [2] = molecular target: T1, Transthyretin; experiment: Inhibition of wild-type Transthyretin (unknown origin) expressed in Escherichia coli expression system assessed as acid mediated fibril formation at 3.6 uM measured after 72 hrs by UV-vis spectrophotometry; design: scale not given: the % may be the effect or the level left
[3] = tested on: Transthyretin (Homo sapiens), P02766 [V50M]; experiment: Inhibition of Transthyretin V30M mutant (unknown origin) assessed as acid mediated fibril formation at 3.6 uM measured after 72 hrs by UV-vis spectrophotometry; design: scale not given: the % may be the effect or the level left
Transthyretin [4] = molecular target: T1, Transthyretin; experiment: Inhibition of urea-induced Transthyretin denaturation in human plasma preincubated for 1 hr followed by urea addition by Western blot analysis; type: cell-free
[5] = tested on: Transthyretin (Homo sapiens), P02766 [V50M]; experiment: Inhibition of Transthyretin V30M mutant (unknown origin) assessed as acid mediated fibril formation at 1.8 uM measured after 72 hrs by UV-vis spectrophotometry; design: scale not given: the % may be the effect or the level left
[6] = Metabolic stability in rat plasma assessed as half life at 1 uM by LC-MS/MS analysis; type: ADME, cell-free
[7] = Metabolic stability in rat liver microsome assessed as percentage of compound remaining at 1 uM measured after 30 min by LC-MS/MS analysis; type: ADME; conditions: liver microsomes, read-out: Stability
[8] = Metabolic stability in human liver microsome assessed as half life at 1 uM by LC-MS/MS analysis; type: ADME; conditions: liver microsomes
[9] = Metabolic stability in rat liver microsome assessed as half life at 1 uM by LC-MS/MS analysis; type: ADME; conditions: liver microsomes
[10] = Metabolic stability in rat plasma assessed as percentage of compound remaining at 1 uM measured after 1 hr by LC-MS/MS analysis; type: ADME, cell-free; conditions: read-out: Stability
[11] = Metabolic stability in human liver microsome assessed as percentage of compound remaining at 1 uM measured after 30 min by LC-MS/MS analysis; type: ADME; conditions: liver microsomes, read-out: Stability

| Compound | Activity (Transthyretin [1]) [%] | Activity (Transthyretin [2]) [%] | Activity [3] [%] | IC50 (Transthyretin [4]) [µM] | Activity [5] [%] | half-life at 1 µM [6] [h] | remaining at 0.5 h, 1 µM [7] [%] | half-life at 1 µM [8] [h] | half-life at 1 µM [9] [h] | remaining at 1 h, 1 µM [10] [%] | remaining at 0.5 h, 1 µM [11] [%] |
| --- | --- | --- | --- | --- | --- | --- | --- | --- | --- | --- | --- |
| Cc1n[nH]c(C)c1CCc1c(C)c2ccc(N)cc2n(C)c1=O | 11.6 | 34.8 | – | – | – | – | – | – | – | – | – |
| Cc1cc(CCc2c(C)c3ccc(O)cc3n(C)c2=O)cc(C)c1O | 3.1 | 20.8 | 26.5 | 13.7 | 56.6 | – | – | – | – | – | – |
| COc1cc2c(C)c(/C=C/c3c(C)n[nH]c3C)c(=O)n(C)c2cc1N | 14.3 | – | – | – | – | – | – | – | – | – | – |
| Cc1cc(CCc2c(C)c3ccc(N)cc3n(C)c2=O)cc(C)c1O | 2.3 | 16.4 | 22.1 | 14.4 | 54.8 | – | – | – | – | – | – |
| Cc1cc(/C=C/c2c(C)c3ccc(O)cc3n(C)c2=O)cc(C)c1O | 5.9 | 24.5 | – | – | – | – | – | – | – | – | – |
| O=C(O)c1ccc2nc(-c3cc(Cl)cc(Cl)c3)oc2c1 | 3.6 | – | 15.9 | – | – | – | – | – | – | – | – |
| Cc1n[nH]c(C)c1/C=C/c1c(C)c2ccc(N)cc2n(C)c1=O | 1.8 | 28.1 | – | – | – | – | – | – | – | – | – |
| Cc1cc(/C=C/c2c(C)c3ccc(N)cc3n(C)c2=O)cc(C)c1O | 3.4 | 12.8 | 16.7 | 3.1 | 49.6 | ≥ 10 | 57.2 | 1.59 | 0.603 | ≥ 100 | 76.9 |
| COc1cc2c(C)c(CCc3cc(C)c(O)c(C)c3)c(=O)n(C)c2cc1N | 2.5 | 31.8 | – | – | – | – | – | – | – | – | – |
| COc1cc2c(C)c(/C=C/c3cc(C)c(O)c(C)c3)c(=O)n(C)c2cc1N | 6 | 15.7 | 22.9 | 11.4 | 55.3 | 2.33 | 59.9 | 1.01 | 0.758 | 86.8 | 71.5 |
